Laboratory results: patent US9732105B2, “Targeted nitroxide agents” (University of Pittsburgh—of the Commonwealth System of …, priority 2011, dated 2017)
Where two headings read alike, the source gives them in different places.

Experiments:
Ercc1^−/− MEFs = test: Cell proliferation / rescue of oxidative-stress-induced senescence in Ercc1−/− MEFs; assay type: cell-based; details: for EC50: read-out: Cell proliferation EC50
Text: Cell survival in irradiation studies depends on complex biochemical pathways, possibly accounting for the complex correlation of nitroxide structure and radiation mitigation properties. Irradiation-induced cell death results from an accumulation of events that individually are not able to kill the cell, but which become lethal when added together. To develop a firmer basis for studying structural modifications, we assayed the ability to rescue cellular senescence induced by oxidative stress in Ercc1^−/− MEFs as a function of test agents (Table 5).
Ercc1^−/− MEFs completely lack a critical DNA repair factor, making these cells highly sensitive to genotoxic and oxidative stress. Growth of the Ercc1^−/− MEFs in 20% 02 results in cellular senescence as measured by senescence associated β-gal, γ-H2AX staining and p16 protein levels. The ability to rescue senescence, as measured by an increase in cell number, correlates with the inhibition of oxidative stress.

[1] = Ascorbic acid electron scavenging assay (disappearance of nitroxide ESR signal); assay type: biochemical; details: 0.5 μM nitroxide, nitroxide ESR signal after 8.5 min; for Signal Decrease (%) (c): 1.12 mM ascorbate; for Signal Decrease (%) (a): 35 μM ascorbate; for Signal Decrease (%) (b): 280 μM ascorbate
Text: In contrast to the DPPH assay, which mainly addresses the radical scavenging/reducing properties of nitroxides and hydroxylamines, the reaction of nitroxides with ascorbic acid benchmarks their ability to act as oxidizing agents in their conversion to hydroxylamines, which is important to their protective function as electron scavengers in the mitochondrial electron transport chain. The electron acceptor potentials of various nitroxides were thus benchmarked in the presence of low, medium, and high concentrations of the electron donor ascorbate (Table 3). ESR was used to detect the characteristic triplet of the nitroxide vs the doublet of ascorbate radicals (see supplementary information), and the disappearance of the former and appearance of the latter was measured over 8.5 min.

[2] = DPPH radical scavenging assay; assay type: biochemical; details: for EC50: EtOH, 100 μM DPPH, 30 min at 37° C.
Text: The free radical reduction abilities of the nitroxides and nitroxide-conjugates were benchmarked by the DPPH (2,2-diphenyl-1-picrylhydrazyl) assay.

[3] = Stability of the free nitroxide on storage; assay type: physicochemical; details: after removal of the Boc group; storage at rt
Text: Preparation of 3-amino-ABNO (12) was envisioned from the known ketone 21, which was easily accessible in one step from acetonedicarboxylic acid and glutaraldehyde (Scheme 1). Conversion of 21 to oxime 22, followed by reduction to the amine with nickel boride and N-Boc protection provided carbamate 23 in high yield. Removal of the benzyl group by catalytic hydrogenolysis and oxidation of the free secondary amine in the presence of urea-hydrogen peroxide complex (UHP) furnished the Boc-protected nitroxide 24.
A mixture of Boc-protected amine 3-Boc-amino-ABNO (24, 200 mg, 0.783 mmol) in a 4.0 N solution of HCl in 1,4-dioxane (3.3 mL, 13.2 mmol) was stirred at 0° C. for 1 h and at rt for an additional 2 h. The suspension was then filtered and the solid rinsed with cold dry Et2O, to give 167 mg of an off-white powder. It was dissolved in a minimum of 2.5 N aq. NaOH, and extracted with warm CHCl3 (7×). The combined organic layers were dried (K2CO3), filtered and concentrated in vacuo to afford 110 mg (90%) of a red oil. Upon high vacuum and/or storage at rt for not more than 1 h, the product started to loose the red color characteristic for a nitroxide and became pale yellow. Thus, the title compound is unstable.

[4] = system: 32Dcl3 murine hematopoietic cells; test: Irradiation survival assay (colony formation) in 32Dcl3 cells; assay type: cell-based; details: for Do, before irradiation / ñ, before irradiation: 10 μM nitroxide for 1 h before irradiation, 0 to 8 Gy; for Do, before irradiation / ñ, before irradiation / Do, after irradiation / ñ, after irradiation: colonies after 7 d; for Do, after irradiation / ñ, after irradiation: cells irradiated, then placed in media containing 10 μM nitroxide; for protection of cells from irradiation (in words): given 1 h before irradiation, shown by increased D0
Text: Irradiation survival assays were used to test the ability of selected nitroxide-conjugates to protect against, or mitigate, irradiation-induced damage of 32Dcl3 murine hematopoietic cells.

5-amino-TMIO [Compound 8]
EC50 (Ercc1^−/− MEFs; Ercc1−/− MEFs, 20% O2): < 1 nM | Signal Decrease (%) (c) [1]: 40.3%

6-Boc-amino-1-Me-AZADO [Compound 32]
EC50 (Ercc1^−/− MEFs; Ercc1−/− MEFs, 20% O2): 62.2 nM | Signal Decrease (%) (a) [1]: 100% | Signal Decrease (%) (b) [1]: 100% | DPPH radical scavenging activity (in words) [2]: slightly higher EC50 values than their corresponding nitroxide substructures

O=C1O[C@H]([C@@H](O)CO)C(O)=C1O [Ascorbic acid, reference compound]
EC50 [2]: 28000 ± 5000 nM

CC(C)C[C@@H](/C=C/CC(=O)NC1CC(C)(C)N([O])C(C)(C)C1)NC(=O)OCc1ccccc1 [Compound 1]
EC50 (Ercc1^−/− MEFs; Ercc1−/− MEFs, 20% O2): 589 nM

CC(C)C[C@H](NC(=O)OC(C)(C)C)[C@@H]1C[C@H]1CC(=O)NC1CC(C)(C)N([O])C(C)(C)C1 [Compound 2]
EC50 (Ercc1^−/− MEFs; Ercc1−/− MEFs, 20% O2): 332 nM

CC(C)C[C@@H](/C=C/CC(=O)NC1CC(C)(C)N([O])C(C)(C)C1)NP(=O)(c1ccccc1)c1ccccc1 [Compound 3]
EC50 (Ercc1^−/− MEFs): 70.4 nM

CC(C)C[C@H](NC(=O)OCc1ccccc1)[C@@H]1C[C@H]1CC(=O)NC1CC(C)(C)N([O])C(C)(C)C1 [Compound 4]
EC50 (Ercc1^−/− MEFs; Ercc1−/− MEFs, 20% O2): 231 nM

CC(C)C[C@H](/C=C/CC(=O)NC1CC(C)(C)N([O])C(C)(C)C1)NC(=O)OC(C)(C)C [Compound 5]
EC50 (Ercc1^−/− MEFs): 200 nM

CC(C)C[C@@H](/C=C/C(F)(F)C(=O)NC1CC(C)(C)N([O])C(C)(C)C1)NC(=O)OC(C)(C)C [Compound 6]
EC50 (Ercc1^−/− MEFs): 7.6 ± 1.4 nM | Signal Decrease (%) (a) [1]: 58.4% | Signal Decrease (%) (b) [1]: 94.1%

CC1(C)c2ccc(N)cc2C(C)(C)N1O [Compound 8-H]
EC50 [2]: 169000 ± 7000 nM

CC1(C)CC(O)CC(C)(C)N1[O] [Compound 9, 4-hydroxy-2,2,6,6-tetramethylpiperidine-N-oxyl, reference compound]
EC50 (Ercc1^−/− MEFs): 229 ± 23.9 nM | Signal Decrease (%) (a) [1]: 35.7% | Signal Decrease (%) (b) [1]: 81% | Signal Decrease (%) (c) [1]: 100%

N[C@@H]1CC2CCC[C@@H](C1)N2[O] [Compound 12, 3-Amino-9-azabicyclo[3.3.1]nonane N-oxyl]
stability (in words) [3]: unstable

CC(C)C[C@@H](/C=C/CC(=O)Nc1ccc2c(c1)C(C)(C)N([O])C2(C)C)NC(=O)OC(C)(C)C [Compound 20]
Do, before irradiation [4]: 1.8 ± 0.1 Gy | ñ, before irradiation [4]: 1.0 ± 0.1 | Do, after irradiation [4]: 1.4 ± 0.1 Gy | ñ, after irradiation [4]: 2.4 ± 0.2 | protection of cells from irradiation (in words) [4]: able to protect cells from multiple killing events | EC50 (Ercc1^−/− MEFs; Ercc1−/− MEFs, 20% O2): 17.6 ± 1.4 nM | Signal Decrease (%) (b) [1]: 15.5% | Signal Decrease (%) (c) [1]: 77.4% | DPPH radical scavenging activity (in words) [2]: slightly higher EC50 values than their corresponding nitroxide substructures

CC(C)(C)OC(=O)NC1CC2CCCC(C1)N2O (stereo not shown) [Compound 24, 3-(tert-Butoxycarbonylamino)-9-azabicyclo[3.3.1]nonane N-oxyl]
EC50 (Ercc1^−/− MEFs; Ercc1−/− MEFs, 20% O2): 40 nM | Signal Decrease (%) (a) [1]: 100% | Signal Decrease (%) (b) [1]: 100%

CC(C)C[C@@H](/C=C/CC(=O)N[C@@H]1CC2CCC[C@@H](C1)N2[O])NC(=O)OC(C)(C)C [Compound 26, (S,E)-N-(9-Azabicyclo[3.3.1]nonan-9-oxo-3-yl)-5-(tert-butoxycarbonylamino)-7-methyloct-3-enamide]
Do, before irradiation [4]: 3.1 ± 0.6 Gy | ñ, before irradiation [4]: 1.0 ± 0.1 | Do, after irradiation [4]: 1.3 ± 0.1 Gy | ñ, after irradiation [4]: 2.7 ± 0.7 | protection of cells from irradiation (in words) [4]: able to protect cells from multiple killing events | EC50 (Ercc1^−/− MEFs; Ercc1−/− MEFs, 20% O2): 11.8 ± 2.7 nM | Signal Decrease (%) (a) [1]: 100% | Signal Decrease (%) (b) [1]: 100% | DPPH radical scavenging activity (in words) [2]: slightly higher EC50 values than their corresponding nitroxide substructures

CC(C)C[C@@H](/C=C/CC(=O)NC1[C@@H]2CC3C[C@H]1C[C@](C)(C2)N3[O])NC(=O)OC(C)(C)C (stereo partly shown) [Compound 33]
Do, before irradiation [4]: 2.6 ± 0.4 Gy | ñ, before irradiation [4]: 1.0 ± 0.1 | Do, after irradiation [4]: 1.3 ± 0.1 Gy | ñ, after irradiation [4]: 2.5 ± 0.3 | protection of cells from irradiation (in words) [4]: able to protect cells from multiple killing events | EC50 (Ercc1^−/− MEFs; Ercc1−/− MEFs, 20% O2): 5.3 ± 0.5 nM

COc1cc(/C=C/C(=O)CC(=O)/C=C/c2ccc(O)c(OC)c2)ccc1O [Curcumin, reference compound]
EC50 (Ercc1^−/− MEFs; Ercc1−/− MEFs, 20% O2): 1000 nM | rescue of senescence (in words) (Ercc1^−/− MEFs; used as negative control): only very weak effects

CC(C)C[C@@H](/C=C/CC(=O)NC1CC(C)(C)N([O])C(C)(C)C1)NC(=O)OC(C)(C)C [JP4-039]
Do, before irradiation [4]: 2.3 ± 0.3 Gy | ñ, before irradiation [4]: 1.0 ± 0.1 | Do, after irradiation [4]: 1.2 ± 0.1 Gy | ñ, after irradiation [4]: 3.5 ± 0.2 | protection of cells from irradiation (in words) [4]: able to protect cells from multiple killing events | EC50 (Ercc1^−/− MEFs): 210 ± 15.2 nM | Signal Decrease (%) (a) [1]: 29.7% | Signal Decrease (%) (b) [1]: 81.4% | DPPH radical scavenging activity (in words) [2]: did not exhibit any significant activity

CC1(C)CCCC(C)(C)N1O [TEMPO-H, reference compound]
EC50 [2]: 79000 ± 2000 nM

CC(C)C[C@@H](/C=C/[C@H](Cc1ccccc1)C(=O)N1CCC[C@H]1C(=O)N[C@H](C(=O)N[C@@H](CCCNC(=O)OCc1ccccc1)C(=O)NC1CC(C)(C)N([O])C(C)(C)C1)C(C)C)NC(=O)OC(C)(C)C [XJB-5-131]
EC50 (Ercc1^−/− MEFs; Ercc1−/− MEFs, 20% O2): 212 ± 5.1 nM | Signal Decrease (%) (a) [1]: 76.7% | Signal Decrease (%) (b) [1]: 92.4% | DPPH radical scavenging activity (in words) [2]: did not exhibit any significant activity
